# In patent US8722849B2, “Polypeptides” (Novo Nordisk A/S, priority 2011, dated 2014):
# Read-outs that look alike come from different tables or passages of the source. Starred links: 1 amine or outer side, 2 acyl side, 3 side chain; linkers in the order of their positions; H or OH if unused. Positions of bridges follow the written chain, without caps; N, C: chain ends. Residues, ends and D or L forms follow the SMILES beside them. *: point of attachment. C20 diacid = O=C(O)CCCCCCCCCCCCCCCCCCC(=O)*; C18 diacid = O=C(O)CCCCCCCCCCCCCCCCC(=O)*; γGlu = O=C(O)[C@H](CCC(=O)[*:2])N[*:1]
# What was measured:
# [1] = biological target: T1, rat amylin 3(a) receptor (rat calcitonin(a) receptor + rat RAMP3) (Rattus norvegicus, UniProt P32214+Q9JJ73); assay: Assay (II)b functional cAMP FlashPlate assay, rat amylin receptor; type: cell-based; settings: Table 11
# T1 construct: expressed in transfected cells; host or cells: BHK tk'ts 13
# T1 sequence (P32214 25-479 isoform P32214-2 limits assumed): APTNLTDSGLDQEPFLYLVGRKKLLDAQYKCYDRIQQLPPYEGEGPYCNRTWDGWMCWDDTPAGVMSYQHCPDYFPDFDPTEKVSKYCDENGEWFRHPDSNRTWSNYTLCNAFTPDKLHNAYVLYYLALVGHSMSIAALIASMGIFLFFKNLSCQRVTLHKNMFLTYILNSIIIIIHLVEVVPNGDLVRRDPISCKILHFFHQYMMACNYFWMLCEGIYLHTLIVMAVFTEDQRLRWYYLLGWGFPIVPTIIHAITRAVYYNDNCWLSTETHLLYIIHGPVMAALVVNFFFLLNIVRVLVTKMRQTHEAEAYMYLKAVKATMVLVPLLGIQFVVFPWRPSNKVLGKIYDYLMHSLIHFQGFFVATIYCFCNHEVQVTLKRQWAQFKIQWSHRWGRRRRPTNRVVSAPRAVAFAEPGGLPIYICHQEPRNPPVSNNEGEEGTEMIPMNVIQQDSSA
# T1 sequence (Q9JJ73 23-147 partner): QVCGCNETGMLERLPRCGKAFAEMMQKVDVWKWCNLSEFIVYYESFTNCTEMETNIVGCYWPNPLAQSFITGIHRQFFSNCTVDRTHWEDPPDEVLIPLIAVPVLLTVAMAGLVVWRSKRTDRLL
# Summary of the method: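 BHK tk'ts 13 cells transiently transfected with rat calcitonin(a) receptor, alone or with rat RAMP3 (amylin 3(a)), were stimulated 24 hours later with sample for 30 min in buffer containing IBMX. cAMP measured by competitive radioactive FlashPlate assay, scintillation read after 3 h detection incubation.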
# [2] = Assay (IV) determination of solubility; type: physicochemical
# Summary of the method: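 Polypeptide in water (~500 nmol/ml) mixed 1:1 with 100 mM glycylglycine (pH 3.0–5.0) or bistrispropane (pH 6.0–8.0) buffers. Held 18 hours at room temperature, then centrifuged. Polypeptide remaining in solution quantified by HPLC.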
# [3] = Assay (III) ThT fibrillation assay for physical stability; type: physicochemical
# Summary of the method: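 Freshly prepared formulations, pH-adjusted, with 1 μM ThT; four or eight replicates incubated at 37 °C under 960 rpm orbital shaking. Fluorescence (ex 444/em 485 nm) read every 20 min; […]. Peptide concentration measured by RP-HPLC before and after the run.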
# [4] = bistrispropane buffer, pH 6, pH 6.0, read-out: Solubility pH 6.0
# [5] = bistrispropane buffer, pH 6.5, pH 6.5, read-out: Solubility pH 6.5
# [6] = bistrispropane buffer, pH 7, pH 7.0, 18 hours at room temperature, Table 3, read-out: Solubility pH 7.0
# [7] = bistrispropane buffer, pH 7, pH 7.0, read-out: Solubility pH 7.0
# [8] = bistrispropane buffer, pH 7.5, pH 7.5, read-out: Solubility pH 7.5
# [9] = bistrispropane buffer, pH 8, pH 8.0, read-out: Solubility pH 8.0
# [10] = glycylglycine buffer, pH 3, pH 3.0, read-out: Solubility pH 3.0
# [11] = glycylglycine buffer, pH 4, pH 4.0, 18 hours at room temperature, Table 2, read-out: Solubility pH 4.0
# [12] = glycylglycine buffer, pH 4, pH 4.0, read-out: Solubility pH 4.0
# [13] = glycylglycine buffer, pH 5, pH 5.0, read-out: Solubility pH 5.0
SMILES,EC50 [1] [nM],"solubility at 18 h [2, 4] [µM]","solubility at 18 h [2, 5] [µM]","solubility at 18 h [2, 6] [µM]","solubility at 18 h [2, 7] [µM]","solubility at 18 h [2, 8] [µM]","solubility at 18 h [2, 9] [µM]","solubility at 18 h [2, 10] [µM]","solubility at 18 h [2, 11] [µM]","solubility at 18 h [2, 12] [µM]","solubility at 18 h [2, 13] [µM]",ThT pH 4.0 lag time ([3]; ThT fibrillation assay) [h],ThT pH 4.0 lag time (h) ([3]; ThT fibrillation assay),ThT pH 4.0 lag time ([3]; Table 8) [h],ThT pH 4.0 lag time ([3]; Table 9) [h],"solubility at 18 h ([2]; bistrispropane buffer, pH 7, pH 7.0, Table 8, read-out: Solubility pH 7.0) [µM]","solubility at 18 h ([2]; bistrispropane buffer, pH 7, pH 7.0, Table 9, read-out: Solubility pH 7.0) [µM]","solubility at 18 h ([2]; bistrispropane buffer, pH 7.5, pH 7.5, Table 9, read-out: Solubility pH 7.5) [µM]"
"CC[C@H](C)[C@H](NC(=O)[C@@H]1CCCN1C(=O)CNC(=O)[C@H](Cc1ccccc1)NC(=O)[C@H](CC(N)=O)NC(=O)[C@H](CC(N)=O)NC(=O)[C@H](CO)NC(=O)[C@H](CO)NC(=O)[C@H](CCCNC(=N)N)NC(=O)[C@H](Cc1c[nH]cn1)NC(=O)[C@H](CC(C)C)NC(=O)[C@H](Cc1ccccc1)NC(=O)[C@H](CCC(=O)O)NC(=O)[C@H](C)NC(=O)[C@H](CC(C)C)NC(=O)[C@H](CCCNC(=N)N)NC(=O)[C@H](CCC(N)=O)NC(=O)[C@@H](NC(=O)[C@H](C)NC(=O)[C@@H]1CSSC[C@H](NC(=O)[C@H](CCC(=O)O)NC(=O)CC[C@H](NC(=O)CCCCCCCCCCCCCCCCCCC(=O)O)C(=O)O)C(=O)N[C@@H](CC(N)=O)C(=O)N[C@@H]([C@@H](C)O)C(=O)N[C@@H](C)C(=O)N[C@@H]([C@@H](C)O)C(=O)N1)[C@@H](C)O)C(=O)N[C@@H](CC(C)C)C(=O)N1CCC[C@H]1C(=O)N1CCC[C@H]1C(=O)N[C@H](C(=O)N[C@@H](CC(N)=O)C(=O)N[C@H](C(=O)NCC(=O)N[C@@H](CO)C(=O)N[C@@H](CC(N)=O)C(=O)N[C@H](C(=O)N1CCC[C@H]1C(N)=O)[C@@H](C)O)C(C)C)[C@@H](C)O [Example 10, N-alpha-[(S)-4-Carboxy-4-(19-carboxynonadecanoylamino)butyryl]-[Glu1,Glu14,His17,Arg18,Pro37]-pramlintide] ({C20 diacid-γGlu}-ECNTATCATQRLAEFLHRSSNNFGPILPPTNVGSNTP-NH2; disulfide 2-7)",0.374,> 200,> 200,> 200,> 200,> 200,> 200,> 200,> 200,> 200,> 200,–,–,–,–,–,–,–
"CC[C@H](C)[C@H](NC(=O)[C@@H]1CCCN1C(=O)CNC(=O)[C@H](Cc1ccccc1)NC(=O)[C@H](CC(N)=O)NC(=O)[C@H](CC(N)=O)NC(=O)[C@H](CO)NC(=O)[C@H](CO)NC(=O)[C@H](Cc1c[nH]cn1)NC(=O)[C@H](Cc1c[nH]cn1)NC(=O)[C@H](CC(C)C)NC(=O)[C@H](Cc1ccccc1)NC(=O)[C@H](CCC(=O)O)NC(=O)[C@H](C)NC(=O)[C@H](CC(C)C)NC(=O)[C@H](CCCNC(=N)N)NC(=O)[C@H](CCC(N)=O)NC(=O)[C@@H](NC(=O)[C@H](C)NC(=O)[C@@H]1CSSC[C@H](NC(=O)[C@H](Cc2c[nH]cn2)NC(=O)CC[C@H](NC(=O)CCCCCCCCCCCCCCCCCCC(=O)O)C(=O)O)C(=O)N[C@@H](CC(N)=O)C(=O)N[C@@H]([C@@H](C)O)C(=O)N[C@@H](C)C(=O)N[C@@H]([C@@H](C)O)C(=O)N1)[C@@H](C)O)C(=O)N[C@@H](CC(C)C)C(=O)N1CCC[C@H]1C(=O)N1CCC[C@H]1C(=O)N[C@H](C(=O)N[C@@H](CC(N)=O)C(=O)N[C@H](C(=O)NCC(=O)N[C@@H](CO)C(=O)N[C@@H](CC(N)=O)C(=O)N[C@H](C(=O)N[C@@H](Cc1ccc(O)cc1)C(N)=O)[C@@H](C)O)C(C)C)[C@@H](C)O [Example 18, N-alpha-[(S)-4-Carboxy-4-(19-carboxynonadecanoylamino)butyryl]-[His1,Glu14,His17]-pramlintide] ({C20 diacid-γGlu}-HCNTATCATQRLAEFLHHSSNNFGPILPPTNVGSNTY-NH2; disulfide 2-7 (inferred); C-terminus assumed)",0.187,> 200,153,191,191,> 200,> 200,> 200,> 200,> 200,> 200,–,–,–,–,–,–,–
"CC[C@H](C)[C@H](NC(=O)[C@@H]1CCCN1C(=O)CNC(=O)[C@H](Cc1ccccc1)NC(=O)[C@H](CC(N)=O)NC(=O)[C@H](CC(N)=O)NC(=O)[C@H](CO)NC(=O)[C@H](CO)NC(=O)[C@H](Cc1c[nH]cn1)NC(=O)[C@H](CCCNC(=N)N)NC(=O)[C@H](CC(C)C)NC(=O)[C@H](Cc1ccccc1)NC(=O)[C@H](CCC(=O)O)NC(=O)[C@H](C)NC(=O)[C@H](CC(C)C)NC(=O)[C@H](CCCNC(=N)N)NC(=O)[C@H](CCC(N)=O)NC(=O)[C@@H](NC(=O)[C@H](C)NC(=O)[C@@H]1CSSC[C@H](NC(=O)[C@H](CCCCN)NC(=O)[C@H](Cc2c[nH]cn2)NC(=O)CC[C@H](NC(=O)CCCCCCCCCCCCCCCCC(=O)O)C(=O)O)C(=O)N[C@@H](CC(N)=O)C(=O)N[C@@H]([C@@H](C)O)C(=O)N[C@@H](C)C(=O)N[C@@H]([C@@H](C)O)C(=O)N1)[C@@H](C)O)C(=O)N[C@@H](CC(C)C)C(=O)N1CCC[C@H]1C(=O)N1CCC[C@H]1C(=O)N[C@H](C(=O)N[C@@H](CC(N)=O)C(=O)N[C@H](C(=O)NCC(=O)N[C@@H](CO)C(=O)N[C@@H](Cc1c[nH]cn1)C(=O)N[C@H](C(=O)N[C@@H](Cc1ccc(O)cc1)C(N)=O)[C@@H](C)O)C(C)C)[C@@H](C)O [Example 71, N-alpha-[(S)-4-Carboxy-4-(17-carboxyheptadecanoylamino)butyryl]-His-[Glu14,Arg17,His35]-pramlintide] ({C18 diacid-γGlu}-HKCNTATCATQRLAEFLRHSSNNFGPILPPTNVGSHTY-NH2; disulfide 3-8 (inferred); C-terminus assumed)",–,> 200,156,–,37,27,26,> 200,> 200,> 200,> 200,>45,>45,–,–,–,–,–
"CC[C@H](C)[C@H](NC(=O)[C@@H]1CCCN1C(=O)CNC(=O)[C@H](Cc1ccccc1)NC(=O)[C@H](CC(N)=O)NC(=O)[C@H](CCC(N)=O)NC(=O)[C@H](CO)NC(=O)[C@H](CO)NC(=O)[C@H](Cc1c[nH]cn1)NC(=O)[C@H](Cc1c[nH]cn1)NC(=O)[C@H](CC(C)C)NC(=O)[C@H](Cc1ccccc1)NC(=O)[C@H](CCC(=O)O)NC(=O)[C@H](C)NC(=O)[C@H](CC(C)C)NC(=O)[C@H](CCCNC(=N)N)NC(=O)[C@H](CCC(N)=O)NC(=O)[C@@H](NC(=O)[C@H](C)NC(=O)[C@@H]1CSSC[C@H](NC(=O)[C@H](CCCCN)NC(=O)CC[C@H](NC(=O)CCCCCCCCCCCCCCCCCCC(=O)O)C(=O)O)C(=O)N[C@@H](CC(N)=O)C(=O)N[C@@H]([C@@H](C)O)C(=O)N[C@@H](C)C(=O)N[C@@H]([C@@H](C)O)C(=O)N1)[C@@H](C)O)C(=O)N[C@@H](CC(C)C)C(=O)N1CCC[C@H]1C(=O)N1CCC[C@H]1C(=O)N[C@H](C(=O)N[C@@H](CC(N)=O)C(=O)N[C@H](C(=O)NCC(=O)N[C@@H](CO)C(=O)N[C@@H](Cc1c[nH]cn1)C(=O)N[C@H](C(=O)N[C@@H](Cc1ccc(O)cc1)C(N)=O)[C@@H](C)O)C(C)C)[C@@H](C)O [Example 117, N-alpha-[(S)-4-Carboxy-4-(19-carboxynonadecanoylamino)butyryl]-[Glu14,His17,Gln21,His35)-pramlintide] ({C20 diacid-γGlu}-KCNTATCATQRLAEFLHHSSQNFGPILPPTNVGSHTY-NH2; disulfide 2-7 (inferred); C-terminus assumed)",–,> 200,> 200,> 200,> 200,> 200,> 200,> 200,> 200,> 200,> 200,>45,>45,>45,>45,> 200,> 200,> 200
